Columns and labels:
[1] = tested on: azoxymethane (AOM)/dextran sodium sulfate (DSS) mouse model of colorectal cancer; experiment: AOM/DSS mouse model of colorectal cancer, tumor number; assay type: in vivo; settings: emodin 40 mg/Kg via gavage three days a week for 10 weeks; vehicle approximately 7 tumors
Method: Effects of dietary emodin on tumorigenesis were examined in an azoxymethane (AOM)/dextran sodium sulfate (DSS) mouse model of colorectal cancer. Colorectal cancer was developed in mice according to known methods. Briefly, mice received a single injection of AOM (10 mg/Kg) followed by 2 cycles of DSS (2% in the water for 1 week followed by 2 weeks of plain water) as previously described (see, e.g., Tanaka T. Colorectal carcinogenesis: Review of human and experimental animal studies. J Carcinog 2009; 8:5; Enos R T, Velazquez K T, McClellan J L, et al. High-fat diets rich in saturated fat protect against azoxymethane/dextran sulfate sodium-induced colon cancer. American journal of physiology Gastrointestinal and liver physiology 2016; 310:G906-19).
The mice were administered either emodin or vehicle treatment (n=12) via gavage at a dose of 40 mg/Kg three days a week for the duration of the AOM/DSS protocol (10 weeks).

[2] = tested on: MCP-1, TNFα, and NOS2 expression; experiment: 5FU-induced colon inflammation, inflammatory gene expression by qPCR in a non-disease model; assay type: in vivo, C57BL/6 mice; settings: 5FU 3 cycles (40 then 20 mg/Kg) plus emodin 40 mg/Kg 3 times per week; vs 5FU plus vehicle
Method: FIG. 6 illustrates the inhibition of 5FU-induced colon inflammation. 5FU treated mice were administered emodin (40 mg/kg 3×wk) or vehicle treatment (n=5). A non-disease phosphate buffer saline (PBS) group was used as a control (n=5). Following 5FU treatment inflammatory mediators were analyzed in the colon via q PCR. *p<0.05.
The effects of dietary emodin on colon inflammation following 5FU administration were examined in a non-disease model. C57BL/6 mice were assigned to either emodin or control treatment (n=5). […] 5FU or PBS was administered daily for 5-days followed by a 9-day recovery (×3 cycles). The dose of 5FU was 40 mg/Kg in cycle 1 and 20 mg/Kg in cycles 2 and 3. Emodin (40 mg/Kg) was administered 3 times per week for the duration of the 5FU treatment.
Given the role of inflammation in chemotherapy-induced toxicity, an analysis of inflammatory genes from the intestines was performed.

MC38 tumors = experiment: MC38 mouse model of adenocarcinoma, tumor weight; assay type: in vivo; settings: emodin 40 mg/Kg via gavage three days a week for 4 weeks; vehicle approximately 1,200 mg
Method: The MC38 mouse model of adenocarcinoma was used. Mice (n=4/group) were administered emodin or vehicle treatment via gavage at a dose of 40 mg/Kg three days a week for 4 weeks. Following the 4-week treatment period tumors in the vehicle treated group weighed approximately 1,200 mg, whereas those in the emodin treated group weighed approximately 400 mg.

5FU toxicity = experiment: Functional measures and survival following 5FU administration in a non-disease model; assay type: in vivo, C57BL/6 mice
Method: Given the positive effects of emodin on inflammation associated with 5FU toxicity, use of emodin was further examined to determine any improvement in quality of life measures with emodin/5FU treatment vs. 5FU treatment alone. The effects of emodin on functional measures and survival following 5FU administration were examined in a non-disease model.
C57BL/6 mice were assigned to either emodin (40 mg/kg 3×per week; n=9) or vehicle treatment (n=10). 5FU was administered at 40 mg/kg in cycle 1 and 20 mg/kg in cycles 2 and 3. Emodin was administered 3 times per week for the duration of the 5FU treatment.
Following the final 5FU cycle, mice underwent a mechanical stimulation test and a run to fatigue.

[3] = tested on: F4/80+ cells (macrophages) in MC38 colon tumors; experiment: Macrophage infiltration into MC38 colon tumors by flow cytometry; assay type: in vivo, mouse; settings: emodin 40 mg/Kg 3 times a week for 4 weeks, tumors of similar sizes
Method: (§1) To test the effects of emodin on TAMs in colorectal cancer, macrophage infiltration into MC38 colon tumors following control or emodin (40 mg/Kg) treatment (3 times a week for 4 weeks) was examined using flow cytometry. Tumors of similar sizes were selected so that emodin effects could be determined independent of any changes in tumor size.

[4] = tested on: Apc^min/+ model of intestinal tumorigenesis; experiment: Apc^min/+ model of intestinal tumorigenesis, polyp number; assay type: in vivo, mouse; settings: emodin 40 mg/Kg via gavage three days a week for 12 weeks; vehicle approximately 75 polyps
Method: The Apc^min/+ model of intestinal tumorigenesis was utilized to test anti-tumor effects of emodin. Mice were administered emodin or vehicle treatment (n=7/group) via gavage at a dose of 40 mg/Kg three days a week for 12 weeks. Results are illustrated in FIG. 2. As indicated, the vehicle treated group had approximately 75 polyps per mouse, whereas emodin treated mice had less than 40 polyps per mouse.

[5] = tested on: pro-tumor markers (Hif1a, IL-10, IL-6 and MCP-1); experiment: Pro-tumor marker expression in MC38 tumors; assay type: in vivo, mouse; settings: emodin 40 mg/Kg
Method: as §1, with “size. […] The effects of emodin on select pro-tumor markers (Hif1a, IL-10, IL-6 and MCP-1) in a tumor was also examined.” for “size.”

[6] = following the final 5FU cycle, emodin 40 mg/kg 3x per week

Compound: Cc1cc(O)c2c(c1)C(=O)c1cc(O)cc(O)c1C2=O [emodin, Emodin]
- number of tumors following the 10-week AOM/DSS protocol [1]: approximately 5 tumors
- MCP-1 expression in colon/intestines after 5FU [2]: decrease
- NOS2 expression in colon/intestines after 5FU [2]: decrease
- TNFα expression in colon/intestines after 5FU [2]: decrease
- tumor weight (MC38 tumors): approximately 400 mg
- body weight loss associated with 5FU treatment (5FU toxicity; 3 cycles of 5FU plus emodin 40 mg/kg 3x per week): prevented the body weight loss
- survival of the 5FU regime (5FU toxicity; 3 cycles of 5FU plus emodin 40 mg/kg 3x per week, vehicle group 50%): 100%
- 5FU induced fatigability (run to fatigue) (5FU toxicity; [6]): offset
- 5FU induced sensitivity to pain (mechanical stimulation test) (5FU toxicity; [6]): offset
- F4/80+ cells (macrophages) in colon tumors [3]: significantly reduce
- polyps per mouse [4]: less than 40 polyps per mouse
- relative expression of Hif1a in tumor [5]: decrease in relative marker expression
- relative expression of IL-6 in tumor [5]: decrease in relative marker expression
- relative expression of IL-10 in tumor [5]: decrease in relative marker expression
- relative expression of MCP-1 in tumor [5]: decrease in relative marker expression

— US20210038537A1, “Emodin for Use in Regulating Expression of Proteins Involved in Inflammation” (UNIVERSITY OF SOUTH CAROLINA, priority 2018, published 2021)
